Tests used:
Format in all cases: cell-based, human
[1] = system: Compound I-resistant LAMA 84 cells (LAMA 84R); experiment: Apoptosis by Wright Giemsa-stained cytospin slides in resistant cells; conditions: Table 7, 24 hr, Compound I (1.0 or 1.25 μM), SAHA (1.0 or 2.0)
Description: For studies involving the LAMA 84-R line, cells are washed free of drug and resuspended in drug-free medium 48 h before experimentation.
Assessment of Apoptosis: After drug exposures, cytocentrifuge preparations are stained with Wright-Giemsa and viewed by light microscopy to evaluate the extent of apoptosis (i.e., cell shrinkage, nuclear condensation, formation of apoptotic bodies, etc.) as described previously (Yu et al., Nat. Rev. Cancer 1:294-202). For these studies, the percentage of apoptotic cells is determined by evaluating ≧500 cells/condition in triplicate. To confirm the results of morphological analysis, Annexin V/PI staining is used. Annexin V/PI (BD PharMingen, San Diego, Calif.) analysis of cell death is carried out as per the manufacturer's instructions. In studies involving TNF and TNF soluble receptor, both compound are combined and maintained at room temperature 20 min prior to use. For these experiments 1-2×10^5 cells per condition are harvested. Analysis is carried out using a Becton-Dickinson FACScan cytofluorometer (Mansfield, Mass.). […] The slides are treated with acetic acid/ethanol (1:2), stained with terminal transferase reaction mixture containing 1× terminal transferase reaction buffer (0.25 units/μl terminal transferase, 2.5 mM CoCl2, and 2 pmol fluorescein-12-dUTM; Boehringer Mannheim, Indianapolis, Ind.), and visualized using fluorescence microscopy.

[2] = system: cytochrome c, AIF, and Smac/DIABLO; experiment: Western analysis of release of cytochrome c, AIF and Smac/DIABLO into S-100 cytosolic fraction; conditions: K562; Compound I (250 nM), SAHA (2.0 μM); 24 hr
phospho-JNK = experiment: Western analysis of phospho-JNK in K562 cells; conditions: 2.0 μM SAHA ± 250 nM Compound I, 16 hr
Description: (§1) Immunoblot Analysis: Immunoblotting is performed as described previously (Yu et al., Nat. Rev. Cancer 1:294-202). In brief, after drug treatment cells are pelleted by centrifugation, and lysed immediately in Laemmli buffer [1×=30 mM Tris-base (pH 6.8), 2% SDS, […] β-mercaptoethanol, and 10% glycerol], and briefly sonicated. Homogenates are quantified using Coomassie protein assay reagent (Pierce, Rockford, Ill.). Equal amounts of protein (20 μg) are boiled for 10 min, separated by SDS-PAGE (5% stacker and 10% resolving), and electroblotted to nitrocellulose membrane. After blocking in TBS-T (0.05%) and 5% milk for 1 h at 22° C., the blots are incubated in fresh blocking solution with an appropriate dilution of primary antibody for 4 h at 22° C. […]
(§2) K562 cells are treated as above, and monitored for expression of Bcl-xL, Mcl-1, and XIAP. […]

K562 cells = experiment: Loss of mitochondrial membrane potential (DiOC6 flow cytometry); conditions: 2.0 μM SAHA ± 250 nM Compound I
Description: Determination of MMP(ΔΨm): MMP is monitored using DiOC6 [36]. For each condition, 4×10^5 cells are incubated for 15 min at 37° C. in 1 ml of 40 nM DiOC6 (Calbiochem) and subsequently analyzed using a Becton Dickinson FACScan cytofluorometer with excitation and emission settings of 488 and 525 nm, respectively. Control experiments documenting the loss of ΔΨm are performed by exposing cells to 5 μM of […] cyanide m-chlorophenylhydrazone (Sigma Chemical Co.; 15 min, 37° C.), an uncoupling agent that abolishes the MMP.

Raf = experiment: Western analysis of Raf expression in K562 cells; conditions: 2.0 μM SAHA ± 250 nM Compound I, 16 hr
Description: as §1, §2

[3] = system: HL-60 promyelocytic leukemia cells; experiment: Apoptosis by Wright Giemsa-stained cytospin slides; conditions: HL-60: SAHA 1.0 μM; Compound I 250 nM; 24 hr
Description: (§3) Experimental Format: Logarithmically growing cells are placed in sterile plastic T-flasks (Corning, Corning, N.Y.) to which are added the designated drugs and the flasks replaced in the incubator for intervals. At the end of the incubation period, cells are transferred to sterile centrifuge tubes, pelleted by centrifugation at 400×g for 10 min at room temperature, and prepared for analysis as described below.
(§4) Assessment of Apoptosis: After drug exposures, cytocentrifuge preparations are stained with Wright-Giemsa and viewed by light microscopy to evaluate the extent of apoptosis (i.e., cell shrinkage, nuclear condensation, formation of apoptotic bodies, etc.) as described previously (Yu et al., Nat. Rev. Cancer 1:294-202). For these studies, the percentage of apoptotic cells is determined by evaluating ≧500 cells/condition in triplicate. To confirm the results of morphological analysis, Annexin V/PI staining is used. Annexin V/PI (BD PharMingen, San Diego, Calif.) analysis of cell death is carried out as per the manufacturer's instructions. In studies involving TNF and TNF soluble receptor, both compound are combined and maintained at room temperature 20 min prior to use. For these experiments 1-2×10^5 cells per condition are harvested. Analysis is carried out using a Becton-Dickinson FACScan cytofluorometer (Mansfield, Mass.). To further confirm the morphology results, TUNEL staining is used. For TUNEL staining, cytocentrifuge preparations are obtained and fixed with 4% formaldehyde. The slides are treated with acetic acid/ethanol (1:2), stained with terminal transferase reaction mixture containing 1× terminal transferase reaction buffer (0.25 units/μl terminal transferase, 2.5 mM CoCl2, and 2 pmol fluorescein-12-dUTM; Boehringer Mannheim, Indianapolis, Ind.), and visualized using fluorescence microscopy.

U937 monocytic leukemia = experiment: Apoptosis by Wright Giemsa-stained cytospin slides; conditions: U937: SAHA 1.5 μM; Compound I 250 nM; 24 hr
Description: as §3, §4

[4] = system: Jurkat lymphoblastic leukemia; experiment: Apoptosis by Wright Giemsa-stained cytospin slides; conditions: Jurkat: SAHA 0.75 μM; Compound I 250 nM; 24 hr
Description: as §3, §4

[5] = system: NB4 promyelocytic leukemia cells; experiment: Apoptosis by Wright Giemsa-stained cytospin slides; conditions: NB4: SAHA 1.5 μM; Compound I 250 nM; 24 hr
Description: as §3, §4

Cc1ccc(NC(=O)c2ccc(CN3CCN(C)CC3)cc2)cc1Nc1nccc(-c2cccnc2)n1 [Compound I, N-{5-[4-(4-methyl-piperazino-methyl)-benzoylamido]-2-methylphenyl}-4-(3-pyridyl)-2-pyrimidine-amine]
Compound I + SAHA % of apoptotic cells [1]: 14.8 ± 4.7% | release of cytochrome c, AIF, and Smac/DIABLO into the cytosolic S-100 cell fraction [2]: minimal | expression of phospho-JNK (JNK activation) (phospho-JNK): fail to modify | percentage of cells displaying loss of mitochondrial membrane potential (ΔΨm) (K562 cells; 0 hours): 5.7 ± 1.8% | percentage of cells displaying loss of mitochondrial membrane potential (ΔΨm) (K562 cells; 6 hours): 8.8 ± 1.9% | percentage of cells displaying loss of mitochondrial membrane potential (ΔΨm) (K562 cells; 24 hours): 17.8 ± 3.4% | percentage of cells displaying loss of mitochondrial membrane potential (ΔΨm) (K562 cells; 48 hours): 41.3 ± 4.3% | expression of Raf (Raf): little effect | % of apoptotic cells [3]: 3.1 ± 1.3% | % of apoptotic cells (U937 monocytic leukemia): 0.9 ± 08% | % of apoptotic cells [4]: 1.1 ± 0.6% | % of apoptotic cells [5]: 1.8 ± 1.3%

O=C(CCCCCCC(=O)Nc1ccccc1)NO [SAHA, suberoylanilide hydroxamic acid]
Compound I + SAHA % of apoptotic cells [1]: 10.3 ± 3.4% | release of cytochrome c, AIF, and Smac/DIABLO into the cytosolic S-100 cell fraction [2]: minimal | expression of phospho-JNK (JNK activation) (phospho-JNK): fail to modify | percentage of cells displaying loss of mitochondrial membrane potential (ΔΨm) (K562 cells; 0 hours): 5.4 ± 1.6% | percentage of cells displaying loss of mitochondrial membrane potential (ΔΨm) (K562 cells; 6 hours): 8.1 ± 1.9% | percentage of cells displaying loss of mitochondrial membrane potential (ΔΨm) (K562 cells; 12 hours): 10.4 ± 2.1% | percentage of cells displaying loss of mitochondrial membrane potential (ΔΨm) (K562 cells; 18 hours): 12.3 ± 2.8% | percentage of cells displaying loss of mitochondrial membrane potential (ΔΨm) (K562 cells; 24 hours): 16.4 ± 2.9% | percentage of cells displaying loss of mitochondrial membrane potential (ΔΨm) (K562 cells; 48 hours): 20.5 ± 2.8% | expression of Raf (Raf): clear reduction | % of apoptotic cells [3]: 6.4 ± 1.9% | % of apoptotic cells (U937 monocytic leukemia): 5.4 ± 1.9% | % of apoptotic cells [4]: 6.3 ± 3.2% | % of apoptotic cells [5]: 5.6 ± 2.3%
